One assay deals with KMS12PE Bcl2 R129L. Nature of the assay: In vitro cytotoxicity CellTiterGlo 72 h, KMS12PE Bcl2 R129L. The format is cell-based. The note with it: Homo sapiens, KMS-12-PE, read-out: C50 nM, KMS12PE Bcl2 R129L. The procedure:
(§1) KMS-12-PE (ACC 606) were purchased from the Leibniz-Institute DSMZ (Braunschweig, Germany) and were grown at 37° C. in a humidified atmosphere with 5% CO2 in media recommended by the suppliers. Lentiviral particles containing Bcl-2 wild type (also named “Bcl2 WT”), Bcl-2 mutated on G101V (also named “Bcl2 G101V”), Bcl-2 mutated on D103Y (also named “Bcl2 D103Y”), Bcl-2 mutated on D103V (also named “Bcl2 D103V”), Bcl-2 mutated on D103E (also named “Bcl2 D103E”), Bcl-2 mutated on F104I (also named “Bcl2 F104I”), Bcl-2 mutated on F104L (also named “Bcl2 F104L”), Bcl-2 mutated on D111A (also named “Bcl2 D111A”), Bcl-2 mutated on A113G (also named “Bcl2 A113G”), Bcl-2 mutated on R129L (also named “Bcl2 R129L”), Bcl-2 mutated on V156D (also named “Bcl2 V156D”) were cloned into pcLV-CMV-DEST-IRES-TagRFP. Lentiviral particles (1×10^6) were mixed with Polybrene at 8 μg/ml and transduced by spinoculation for 1 h at 32° C. and incubated overnight. After 8 days, TagRFP positive-cells were sorted by FACS. BCL2 expression was monitored by immunoblotting using anti-Flag and anti-BCL2 antibodies. Cells were seeded into 96-wells plates and treated with 1:3.16 serial dilution of compounds (9 different concentrations). Cell viability was assessed using CellTiterGlo reagent following treatment for 72 h. Results were normalized to the viability of cells without compounds (control wells). The C50 values were calculated using nonlinear regression algorithms in XCell software.

For a further assay, the system named is KMS12PE Bcl2 G101V. Kind of assay: In vitro cytotoxicity CellTiterGlo 72 h, KMS12PE Bcl2 G101V. The format is cell-based. The settings on record: Homo sapiens, KMS-12-PE, read-out: C50 nM, KMS12PE Bcl2 G101V. The procedure: as §1
The next assay has as its system KMS12PE Bcl2 V156D. Kind of assay: In vitro cytotoxicity CellTiterGlo 72 h, KMS12PE Bcl2 V156D. The format is cell-based. The settings on record: Homo sapiens, KMS-12-PE, read-out: C50 nM, KMS12PE Bcl2 V156D. The procedure: as §1
(In ATP-based viability assays light output follows the ATP content of the culture.)

The subject of the next assay is KMS12PE Bcl2 A113G. Nature of the assay: In vitro cytotoxicity CellTiterGlo 72 h, KMS12PE Bcl2 A113G. The format is cell-based. The settings on record: Homo sapiens, KMS-12-PE, read-out: C50 nM, KMS12PE Bcl2 A113G. The method, then:
as §1

For a further assay, the system named is KMS12PE Bcl2 F104I. Kind of assay: In vitro cytotoxicity CellTiterGlo 72 h, KMS12PE Bcl2 F104I. It is filed as cell-based. The settings on record: Homo sapiens, KMS-12-PE, read-out: C50 nM, KMS12PE Bcl2 F104I. The procedure: as §1
In a further assay the target is BCL2 G101V (Homo sapiens, UniProt P10415, G101V). Nature of the assay: TR-FRET competitive binding assay, BCL2 G101V. The note with it: BCL2 G101V; Ki determined from IC50; read-out: TR_FRET EKI_Bcl2 G101V. The procedure, abridged:
(§2)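 Competitive TR-FRET displacement of fluorescein-PUMA peptide (2 or 20 nM) from 0.5 nM terbium-labelled N-terminal Halo-fusion BCL2 (1-207, wild type or mutant) or BCLXL (2-196), expressed in E. coli. Buffer 50 mM Hepes pH 7.5, 150 mM NaCl, 5% DMSO; 2 h at 23°C. 520/495 nm ratio fitted over 11 points for IC50, converted to Ki.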
In general terms: TR-FRET usually uses a lanthanide donor and a delayed reading to cut background.

Another assay deals with BCLXL WT (Homo sapiens (Human), UniProt Q07817). Nature of the assay: TR-FRET competitive binding assay, BCLXL WT. The settings on record: for Ki: BCLXL WT, Ki determined from IC50, read-out: TR_FRET EKI BclxL; for TR_FRET EKI BCLxL/WT selectivty ratio: ratio Ki BCLxL / Ki BCL2 WT. The procedure, abridged: as §2
Sequence of BCLXL WT (Q07817 other isoform, or with tags, fused parts or gaps): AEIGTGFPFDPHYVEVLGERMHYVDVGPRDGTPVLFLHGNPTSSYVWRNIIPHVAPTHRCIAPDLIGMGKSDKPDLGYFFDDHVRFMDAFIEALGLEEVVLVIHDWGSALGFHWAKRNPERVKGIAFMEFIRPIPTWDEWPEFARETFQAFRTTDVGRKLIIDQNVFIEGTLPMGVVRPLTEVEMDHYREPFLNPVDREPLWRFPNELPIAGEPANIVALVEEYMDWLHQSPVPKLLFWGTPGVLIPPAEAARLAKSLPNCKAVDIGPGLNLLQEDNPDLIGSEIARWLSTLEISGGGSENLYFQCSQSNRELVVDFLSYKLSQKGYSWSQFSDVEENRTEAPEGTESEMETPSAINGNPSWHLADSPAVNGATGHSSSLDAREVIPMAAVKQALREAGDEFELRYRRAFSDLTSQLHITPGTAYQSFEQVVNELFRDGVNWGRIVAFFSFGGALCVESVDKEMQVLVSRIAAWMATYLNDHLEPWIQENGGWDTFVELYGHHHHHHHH
Another assay concerns KMS12PE Bcl2 D103V. Kind of assay: In vitro cytotoxicity CellTiterGlo 72 h, KMS12PE Bcl2 D103V. The format is cell-based. The settings on record: Homo sapiens, KMS-12-PE, read-out: C50 nM, KMS12PE Bcl2 D103V. The method, then:
as §1

Another assay concerns KMS12PE Bcl2 WT. Nature of the assay: In vitro cytotoxicity CellTiterGlo 72 h, KMS12PE Bcl2 WT. The format is cell-based. The settings on record: Homo sapiens, KMS-12-PE, read-out: C50 nM, KMS12PE Bcl2 WT. The method, then: as §1
The next assay relates to KMS12PE. Kind of assay: In vitro cytotoxicity CellTiterGlo 72 h, KMS12PE. The format is cell-based. The note with it: Homo sapiens, KMS-12-PE, read-out: C50 nM, KMS12PE. The method, then: as §1

Take `Cc1c(N(C(=O)c2cc(-c3cc4c(cc3C(=O)N3Cc5ccccc5C[C@H]3C)CN(C(=O)Cc3ccc(N5CCN6CCOC[C@@H]6C5)cc3F)CC4)n(C)c2C)c2ccc(O)cc2)cc(C#N)n1C` [Example 45, 5-[2-(2-{4-[(9aS)-octahydropyrazino[2,1-c][1,4]oxazin-8-yl]-2-fluorophenyl}acetyl)-7-[(3R)-3-methyl-1,2,3,4-tetrahydroisoquinoline-2-carbonyl]-1,2,3,4-tetrahydroisoquinolin-6-yl]-N-(5-cyano-1,2-dimethyl-1H-pyrrol-3-yl)-N-(4-hydroxyphenyl)-1,2-dimethyl-1H-pyrrole-3-carboxamide]: the IC50 in the assay with KMS12PE Bcl2 R129L was found to be 1.89 nM; in the assay on KMS12PE Bcl2 G101V it was 18.2 nM; in the assay with KMS12PE Bcl2 V156D it was 0.96 nM; with KMS12PE Bcl2 A113G it was 8.03 nM; in the assay on KMS12PE Bcl2 F104I it was 114 nM; in the assay with KMS12PE Bcl2 D103V, 2.7 nM. Further, the IC50 in the assay on KMS12PE Bcl2 WT worked out at 3.3 nM; in the assay on KMS12PE, 0.32 nM. For the same compound, the figures for the Ki on BCL2 G101V and on BCLXL WT were 0.4 nM and 2.5 nM, respectively. The “TR_FRET EKI BCLxL/WT selectivty ratio” value on BCLXL WT came to 31.6.
Turning to `COC[C@@H]1Cc2ccccc2CN1C(=O)c1cc2c(cc1-c1cc(C(=O)N(c3ccc(O)cc3)c3cc(C#N)n(C)c3C)c(C)n1C)CCN(C(=O)Cc1ccc(OCCC3CCOCC3)cc1F)C2` [Example 52, N-(5-cyano-1,2-dimethylpyrrol-3-yl)-5-[2-(2-{2-fluoro-4-[2-(oxan-4-yl)ethoxy]phenyl}acetyl)-7-{[(3S)-3-(methoxymethyl)-3,4-dihydro-1H-isoquinolin-2-yl]carbonyl}-3,4-dihydro-1H-isoquinolin-6-yl]-N-(4-hydroxyphenyl)-1,2-dimethylpyrrole-3-carboxamide], the IC50 with KMS12PE Bcl2 R129L came to 1.89 nM; in the assay with KMS12PE Bcl2 G101V, 10.6 nM; with KMS12PE Bcl2 V156D, 10.6 nM; with KMS12PE Bcl2 A113G, 3.99 nM; in the assay on KMS12PE Bcl2 F104I it was 11.1 nM; with KMS12PE Bcl2 D103V, 2.78 nM. Besides, the IC50 in the assay on KMS12PE Bcl2 WT came to 2.07 nM; in the assay with KMS12PE, 0.21 nM. Besides, the Ki at BCL2 G101V is 0.5 nM; at BCLXL WT it was 3 nM. On BCLXL WT, the “TR_FRET EKI BCLxL/WT selectivty ratio” value is reported as 15.2.
Regarding `Cc1c(N(C(=O)c2cc(-c3cc4c(cc3C(=O)N3Cc5ccccc5C[C@H]3CN3CCCCC3)CN(C(=O)Cc3ccc(OCCN5CCOCC5)cc3F)CC4)n(C)c2C)c2ccc(O)cc2)cc(C#N)n1C` [Example 43, N-(5-cyano-1,2-dimethylpyrrol-3-yl)-5-[2-(2-{2-fluoro-4-[2-(morpholin-4-yl)ethoxy]phenyl}acetyl)-7-{[(3S)-3-(piperidin-1-ylmethyl)-3,4-dihydro-1H-isoquinolin-2-yl]carbonyl}-3,4-dihydro-1H-isoquinolin-6-yl]-N-(4-hydroxyphenyl)-1,2-dimethylpyrrole-3-carboxamide], the IC50 was 0.99 nM with KMS12PE Bcl2 R129L; 10 nM in the assay on KMS12PE Bcl2 G101V; 6.63 nM in the assay on KMS12PE Bcl2 V156D; 2.5 nM with KMS12PE Bcl2 A113G; 29.3 nM with KMS12PE Bcl2 F104I; 2 nM in the assay with KMS12PE Bcl2 D103V. The IC50 with KMS12PE Bcl2 WT worked out at 1.8 nM; in the assay with KMS12PE, 0.22 nM. Also, the Ki came out at 0.2 nM at BCL2 G101V and 2.2 nM on BCLXL WT. The “TR_FRET EKI BCLxL/WT selectivty ratio” value on BCLXL WT came out at 55.0.
For `Cc1c(C(=O)N(c2ccc(O)cc2)c2cc(C#N)n(C(F)F)c2C)cc(-c2cc3c(cc2C(=O)N2Cc4ccccc4C[C@H]2CN2CCCCC2)CN(C(=O)Cc2ccc(OCCN4CCOCC4)cc2)CC3)n1C` [Example 77], the IC50 was 2.81 nM with KMS12PE Bcl2 R129L; 28.2 nM with KMS12PE Bcl2 G101V; 19.1 nM with KMS12PE Bcl2 V156D; 7.86 nM with KMS12PE Bcl2 A113G; 156 nM with KMS12PE Bcl2 F104I; 6.28 nM in the assay with KMS12PE Bcl2 D103V. Moreover, the values for the IC50 in the assay on KMS12PE Bcl2 WT and in the assay on KMS12PE were 4.75 nM and 0.42 nM, respectively. Moreover, the results for the Ki on BCL2 G101V and on BCLXL WT were 0.3 nM and 8 nM, respectively. Also, the “TR_FRET EKI BCLxL/WT selectivty ratio” value on BCLXL WT came out at 135.6.
Regarding `Cc1c(N(C(=O)c2cc(-c3cc4c(cc3C(=O)N3Cc5ccccc5C[C@H]3C)CN(C(=O)Cc3ccc(CCN5CCC(F)(F)CC5)cc3)CC4)n(C)c2C)c2ccc(O)cc2)cc(C#N)n1C` [Example 51, N-(5-cyano-1,2-dimethylpyrrol-3-yl)-5-[2-(2-{4-[2-(4,4-difluoropiperidin-1-yl)ethyl]phenyl}acetyl)-7-{[(3R)-3-methyl-3,4-dihydro-1H-isoquinolin-2-yl]carbonyl}-3,4-dihydro-1H-isoquinolin-6-yl]-N-(4-hydroxyphenyl)-1,2-dimethylpyrrole-3-carboxamide], the IC50 in the assay with KMS12PE Bcl2 R129L was determined as 3.22 nM; in the assay with KMS12PE Bcl2 G101V, 20.2 nM; in the assay with KMS12PE Bcl2 V156D, 31.9 nM; with KMS12PE Bcl2 A113G, 9.24 nM; in the assay on KMS12PE Bcl2 F104I, 321 nM; in the assay on KMS12PE Bcl2 D103V, 4.63 nM. The IC50 worked out at 2.82 nM in the assay on KMS12PE Bcl2 WT and 0.34 nM in the assay on KMS12PE. Further, the Ki on BCL2 G101V stood at 1 nM; on BCLXL WT, 4.4 nM. Besides, the “TR_FRET EKI BCLxL/WT selectivty ratio” value on BCLXL WT is 20.0.
Take `Cc1c(N(C(=O)c2cc(-c3cc4c(cc3C(=O)N3Cc5ccccc5C[C@H]3C)CN(C(=O)Cc3ccc(OCCN5CCOCC5)cc3)CC4)n(C)c2C)c2ccc(O)cc2)cc(C#N)n1C` [Example 21, N-(5-cyano-1,2-dimethyl-1H-pyrrol-3-yl)-N-(4-hydroxyphenyl)-1,2-dimethyl-5-{7-[(3R)-3-methyl-1,2,3,4-tetrahydroisoquinoline-2-carbonyl]-2-(2-{4-[2-(morpholin-4-yl)ethoxy]phenyl}acetyl)-1,2,3,4-tetrahydroisoquinolin-6-yl}-1H-pyrrole-3-carboxamide]: the IC50 in the assay with KMS12PE Bcl2 R129L is 1.51 nM; with KMS12PE Bcl2 G101V, 9.36 nM; with KMS12PE Bcl2 V156D, 9.77 nM; in the assay with KMS12PE Bcl2 A113G, 4.06 nM; in the assay with KMS12PE Bcl2 F104I, 45 nM; in the assay on KMS12PE Bcl2 D103V, 3.34 nM. In addition, the IC50 in the assay on KMS12PE Bcl2 WT worked out at 2.56 nM; in the assay on KMS12PE, 0.24 nM. For the same compound, the Ki at BCL2 G101V is 0.3 nM; at BCLXL WT, 1.1 nM. Further, the “TR_FRET EKI BCLxL/WT selectivty ratio” value at BCLXL WT stood at 10.0.
For the compound `Cc1c(C(=O)N(c2ccc(O)cc2)c2cc(C#N)n(C(F)F)c2C)cc(-c2cc3c(cc2C(=O)N2Cc4ccccc4C[C@H]2CN2CCCCC2)CN(C(=O)Cc2ccc(OCCN4CCOCC4)cc2F)CC3)n1C` [Example 78, N-[5-cyano-1-(difluoromethyl)-2-methylpyrrol-3-yl]-5-[2-(2-{2-fluoro-4-[2-(morpholin-4-yl)ethoxy]phenyl}acetyl)-7-{[(3S)-3-(piperidin-1-ylmethyl)-3,4-dihydro-1H-isoquinolin-2-yl]carbonyl}-3,4-dihydro-1H-isoquinolin-6-yl]-N-(4-hydroxyphenyl)-1,2-dimethylpyrrole-3-carboxamide], the IC50 is 0.9 nM with KMS12PE Bcl2 R129L; 8.35 nM in the assay on KMS12PE Bcl2 G101V; 5.88 nM in the assay with KMS12PE Bcl2 V156D; 2.11 nM in the assay on KMS12PE Bcl2 A113G; 21.8 nM in the assay with KMS12PE Bcl2 F104I; 1.59 nM in the assay with KMS12PE Bcl2 D103V. Further, the IC50 in the assay on KMS12PE Bcl2 WT came to 1.41 nM; with KMS12PE it was 0.12 nM. Besides, the values for the Ki at BCL2 G101V and at BCLXL WT were 0.4 nM and 7.1 nM, respectively. Moreover, the “TR_FRET EKI BCLxL/WT selectivty ratio” value on BCLXL WT worked out at 134.0.
